Results reported in patent US20060167229A1, “Biologically active peptide conjugates” (priority 2002, published 2006).
Marks after values point to notes of the source that are not given here. Ends that are not written are not given here.

Legend:
T lymphocyte = T lymphocyte transformation test (ConA-stimulated spleen cells of treated mice, MTT); format: in vivo, BALB/c mice; settings: for X ± SD (stimulation index): healthy mice, saline 1.3 ± 0.1; for effect on T lymphocyte transformation (summary): statistically significant difference from saline in any of the dosage groups 0.5-500 μg/kg/day
Description: (§1) The above substances were all dissolved in 0.5 ml saline and injected intraperitoneal (i.p.) for 15 continuous days, once per day.
(§2) Ten mice per group. The day after the last test substance administration, the mice were sacrificed by cervical dislocation. The spleen was isolated aseptically and manually dispersed in cold D-Hank's solution using an injection needle. The dispersed cell suspension was further sieved through a 100 gauge 150 μm diameter stainless steel sieve. After centrifugation at 200 g for 10 minutes, the supernatant was discarded. The cell pellet was re-suspended in 10 volume of Tris-NH4Cl buffer and then kept standing still for 10 minutes at room temperature. The suspended cells were collected by centrifugation at 150 g for 10 minutes. The cells were washed 2-4 times with cold D-Hank's solution by re-suspending and collecting by centrifugation with condition as described above. The washed cells were then diluted to the desired cell densities by RPMI-1640 culture medium, containing 10% fetal bovine serum.
(§3) Spleen cells of density 1×10^6/ml were placed onto a 96 wells cell culture plate, 100 μL/well, three parallel wells each of the assay sample and control sample per mouse. To the assay wells, 100 μl/well ConA of 100 μg/ml in RPMI-1640 was added, and […] plain RPMI-1640 was used for the controls. The cells were incubated for 66 hrs at 37° C., 5% CO2. The cells were then pelleted by centrifugation at 150 g for 10 minutes.
50 μl/well MTT of 1 mg/ml in RPMI-1640 was added to the cell pellet and the cells re-suspended by shaking for 2 minutes. The incubation was continued for 4 hours. The supernatant was discarded after centrifugation at 150 g for 10 minutes. 120 μl 40 mM HCl-2-propanol was added to the cell pellet and shaken for 3 minutes. […]
Each mouse formed three assay wells and three control wells. The Stimulation Index (SI) of each mouse was obtained by first deriving the average OD of the three parallel wells, then dividing the value of the assay wells by the control wells.

IL-2 = test: T lymphocyte IL-2 secretion test (HT-2 cell bioassay of ConA supernatant); format: in vivo, BALB/c mice; settings: for activity of T lymphocyte in secreting IL-2, X ± SD (IU): healthy mice
Description: as §3
HT-2 cells at log phase were collected by centrifugation at 150 g for 10 minutes, and washed three times with cold Hank's solution by re-suspension and centrifugation. The collected HT-2 cells were re-suspended in RPMI-1640 and incubated at 37° C., 5% CO2 for 30 minutes. The cells were further washed twice with RPMI-1640 by re-suspension and centrifugation, and re-suspended to final concentration of 2×10^5/ml with RPMI-1640.
rIL-2 was diluted to the following concentration with RPMI-1640: 500 IU/ml, 250 IU/ml, 125 IU/ml, 62.5 IU/ml, 31.25 IU/ml, and […].
The plate was incubated at 37° C., 5% CO2 for 68 hours, then centrifuged at 150 g for 15 minutes and the supernatant removed. 100 μl 0.5 mg/ml MTT in RPMI-1640 without phenolsulfonphthalein was added into each well. After shaking for 3-4 minutes to re-suspend the cells, continue to incubate for another 4 hours. Samples were then centrifuged at 150 g for 15 minutes and the supernatant was removed. To each well, 120 μl 40 mM HCl-2-propanol was added, mixed for 3-4 minutes and OD analyzed at 570 nm, referenced at 630 nm with an ELISA plate reader.
The average OD of the three parallel wells of each dilution was taken and plotted against concentration on a semi-log paper, concentration on the X-axis. The concentration at 50% OD saturation was obtained for both the testing supernatant and rIL-2.

anti-SRBC antibody = test: Sheep Red Blood Cell (SRBC) hemolysis test, antibody formation; format: in vivo, BALB/c mice; settings: for anti-SRBC antibody formation, X ± SD (Unit): healthy mice, SRBC day 12 (IFN-γ, IL-2 3×10^5 IU/kg/day), saline 32 ± 7; for effect on the synthesis of anti-SRBC antibody upon the antigenic challenge (summary): statistically significant difference from saline in any of the dosage groups 0.5-500 μg/kg/day
Description: Sheep red blood cells (SRBC) were prepared by collecting blood from cervical vein and put into a sterile flask with glass beads. The flask was shaken for 3 minutes and the blood then mixed with Alsever solution (glucose 2.05 g, NaCl 0.4 g, […] 0.8 g, adjust to 100 ml with distilled water) and stored at 4° C. Immediately before use, samples were centrifuged at 130 g, 5 minutes to collect the SRBC. The cells were washed two times by re-suspension and centrifugation in normal saline. Then the cell pellet was collected by centrifugation at 180 g for 10 minutes and re-suspended in saline to make the final working SRBC suspension, 2% (v/v).
Complement was prepared by adding 10 volumes of fresh Cavy serum into one volume centrifuge packed SRBC, and then gently shaking for 30 minutes at 4° C. The SRBC was removed by centrifugation at 200 g for 10 minutes. 10 volumes of normal saline were added to obtain the working complement solution.
The test substances were administered as described in section 1.1, plus intraperitoneal injection 0.2 ml SRBC per mouse on day 12. On the day after the last test substance administration (day 16), blood was collected from the eye canthus and left at room temperature for one hour for serum exudation. After centrifugation at 200 g for 10 minutes, the serum was diluted by 500 times with normal saline.
To 1 ml diluted mouse serum of each mouse, 0.5 ml SRBC suspension was added. Ice cold. Then 1 ml working complement solution was added and incubated at 37° C. water bath for 10 minutes. Reactions were terminated by ice cold. Samples were then centrifuged at 200 g for 10 minutes to obtain the supernatant.
To 1 ml of this supernatant, 3 ml Drabkin solution was added and left at room temperature for 10 minutes. OD540 nm was obtained.
Reference OD540 nm was obtained by mixing 0.25 ml SRBC suspension with Drabkin solution to 4 ml and placed at room temperature for 10 minutes before OD540 nm was taken.
Sample serum index=(OD540 nm of test sample÷reference OD540 nm)×500

spleen = test: Immunity organ weight test, spleen index; format: in vivo, BALB/c mice; settings: for weight of spleen (spleen index), X ± SD (%): healthy mice, peptide 500 μg/kg/day i.p. 15 days, saline 0.53 ± 0.05; for effect on the weight of the spleen (summary): statistically significant difference from saline in any of the dosage groups 0.5-500 μg/kg/day
Description: (§4) One day after the last test substance administration (day 16), the liver, spleen, and thymus gland were separated and blotted dry with filter paper and weighed. The phagocytosis index α was calculated as below: α=(^3√{square root over ( )}K)(W÷WLS)
Spleen index (%)=(spleen weight/body weight)×100%

interferon (IFN) = test system: interferon (IFN); parameters: species or system BALB/c mice; settings: mouse, in vivo; for activity of T lymphocyte in secreting IFN, X ± SD (IU): ip
NK cell = NK cell cytotoxicity activity test (spleen cells of treated mice against YAC-1 target cells, MTT); format: in vivo, BALB/c mice; settings: for NK cell cytotoxic activity, X ± SD (%): healthy mice; for effect on the cytotoxic activity of NK cells (summary): statistically significant difference from saline in any of the dosage groups 0.5-500 μg/kg/day
Description: as §1, §2
Mice spleen cells were prepared to 4×10^6/ml as described in section 1.1 above. Target cells YAC-1 were brought to log phase and adjusted to 1×10^5/ml. Using a 96 wells cell culture plate, […] were added to the control well containing only the spleen cells; […] and 100 μl culture medium were added to the control well containing only target cells; 100 μl mouse spleen cells and 100 μl target cells were added to the NK activity assay well. Three parallel sets of the above were prepared per mouse.
Samples were centrifuged at 150 g for 10 minutes to collect the cells. The supernatant was discarded and 50 μl/well MTT of 1 mg/ml was added. The reaction-mixture was then shaken for 2 minutes, and incubated at 37° C., 5% CO2 for 4 hours. The supernatant was discarded after centrifugation at 150 g for 10 minutes. […] 40 mM HCl-2-propanol was added and shaken for 3 minutes. An ELISA reader was used to obtain OD570 nm of each well referenced at 630 nm.

mononuclear phagocyte = test: Carbon particle clearance test, phagocytosis function; format: in vivo, BALB/c mice; parameters: key to X ± SD (phagocytotic index): α = cube root of K × (body weight ÷ liver+spleen weight)
Description: On the next day after the last test substance administration (day 16), the mice were injected with […] body weight India ink (5 times dilution with normal saline) from the tail vein.
One minute and five minutes after Indian ink injection, 20 μl blood was obtained from the eye canthus with a heparinized tubing. The blood was mixed with 2 ml 0.1% w/v Na2CO3 and then OD680 nm obtained. The outline clear index K was calculated by the following formula: K=(lgA1−lgA2)÷(t2−t1)
as §4

thymus gland = test: Immunity organ weight test, thymus gland index; format: in vivo, BALB/c mice; settings: for weight of thymus gland (thymus gland index), X ± SD (%): healthy mice, saline 0.12 ± 0.02; for effect on the weight of the thymus gland (summary): statistically significant difference from saline in any of the dosage groups 0.5-500 μg/kg/day
Description: as §4
Thymus gland index (%)=(thymus weight/body weight)×100%

[1] = peptide 5 μg/kg/day i.p. 15 days (IFN-γ, IL-2 3×10^5 IU/kg/day)
[2] = peptide 500 μg/kg/day i.p. 15 days (IFN-γ, IL-2 3×10^5 IU/kg/day)
[3] = statistically significant difference from saline in any of the dosage groups 0.5-500 μg/kg/day
[4] = peptide 5 μg/kg/day i.p. 15 days
[5] = peptide 500 μg/kg/day i.p. 15 days
[6] = peptide 500 μg/kg/day i.p. 15 days (IFN-γ, IL-2 3×10^5 IU/kg/day), saline 63 ± 9
[7] = peptide 0.5 μg/kg/day i.p. 15 days
[8] = peptide 50 μg/kg/day i.p. 15 days

Row | Substance | X ± SD (stimulation index) (T lymphocyte; [2]) | effect on T lymphocyte transformation (summary) (T lymphocyte) | anti-SRBC antibody formation, X ± SD (Unit) (anti-SRBC antibody; [4]) | anti-SRBC antibody formation, X ± SD (Unit) (anti-SRBC antibody; [5]) | effect on the synthesis of anti-SRBC antibody upon the antigenic challenge (summary) (anti-SRBC antibody) | weight of spleen (spleen index), X ± SD (%) (spleen) | effect on the weight of the spleen (summary) (spleen) | effect on the secretion of IFN by T lymphocytes (summary) (interferon (IFN)) | activity of T lymphocyte in secreting IFN, X ± SD (IU) (interferon (IFN)) | NK cell cytotoxic activity, X ± SD (%) (NK cell; [6]) | effect on the cytotoxic activity of NK cells (summary) (NK cell) | anti-SRBC antibody formation, X ± SD (Unit) (anti-SRBC antibody; [7]) | anti-SRBC antibody formation, X ± SD (Unit) (anti-SRBC antibody; [8]) | weight of thymus gland (thymus gland index), X ± SD (%) (thymus gland; [1]) | effect on the weight of the thymus gland (summary) (thymus gland) | other results
1 | Ala Gly Asp Asp Ala Pro Arg Ala Val Phe (AGDDAPRAVF; listed as Sus scrofa) [CMS007] | 1.6 ± 0.1 | enhance | 122 ± 12*^@^ Unit | 69 ± 17*^@ Unit | enhance | 0.32 ± 0.05 | decrease | – | – | – | – | – | – | – | – | X ± SD (stimulation index) (T lymphocyte; [1]): 1.7 ± 0.1; activity of T lymphocyte in secreting IL-2, X ± SD (IU) (IL-2; peptide 5 μg/kg/day i.p. 15 days (IFN-γ, IL-2 3×10^5 IU/kg/day), saline 37 ± 9): 64 ± 12 IU; activity of T lymphocyte in secreting IL-2, X ± SD (IU) (IL-2; peptide 500 μg/kg/day i.p. 15 days (IFN-γ, IL-2 3×10^5 IU/kg/day), saline 39 ± 10): 86 ± 15*^ IU; effect on the secretion of interleukin-2 (IL-2) by T lymphocytes (summary) (IL-2; [3]): enhance
2 | LRVAPQEHPVL [CMS013] | – | – | 93 ± 28*^@ Unit | 80 ± 16*^@ Unit | – | 0.44 ± 0.07 | decrease | enhance | 154 ± 15*^@^ IU | 84 ± 9 | increase | 7 ± 1 Unit | 70 ± 9*^@ Unit | 0.21 ± 0.05 % | increase | X ± SD (phagocytotic index) (mononuclear phagocyte; healthy mice, peptide 5 μg/kg/day i.p. 15 days (IFN-γ, IL-2 3×10^5 IU/kg/day), saline 5.1 ± 0.6): 6.7 ± 0.2; effect on the phagocytotic activity of mononuclear phagocyte (summary) (mononuclear phagocyte; [3]): enhance
3 | MATAASSSSL [CMS021] | 1.6 ± 0.1 | enhance | 82 ± 30*^@ Unit | – | enhance | 0.36 ± 0.04 | decrease | enhance | 143 ± 17*^@^ IU | – | increase | 57 ± 9*^@ Unit | 94 ± 20*^@^ Unit | 0.20 ± 0.06 % | increase | NK cell cytotoxic activity, X ± SD (%) (NK cell; peptide 50 μg/kg/day i.p. 15 days (IFN-γ, IL-2 3×10^5 IU/kg/day), saline 56 ± 8): 88 ± 12*^@^ %
4 | Phe Gln Pro Ser Phe (FQPSF; printed: Phe Gln Pro Ser Phe) [CMS028] | – | – | 121 ± 48*^@^ Unit | – | – | – | – | enhance | 96 ± 13 IU | 90 ± 5 | increase | 18 ± 5 Unit | – | 0.28 ± 0.06*^@^ % | increase | NK cell cytotoxic activity, X ± SD (%) (NK cell; peptide 0.5 μg/kg/day i.p. 15 days (IFN-γ, IL-2 3×10^5 IU/kg/day), saline 58 ± 7): 79 ± 3 %; weight of thymus gland (thymus gland index), X ± SD (%) (thymus gland; peptide 0.5 μg/kg/day i.p. 15 days (IFN-γ, IL-2 3×10^5 IU/kg/day)): 0.20 ± 0.06 %; weight of thymus gland (thymus gland index), X ± SD (%) (thymus gland; peptide 50 μg/kg/day i.p. 15 days (IFN-γ, IL-2 3×10^5 IU/kg/day)): 0.18 ± 0.04 %; weight of thymus gland (thymus gland index), X ± SD (%) (thymus gland; [2]): 0.19 ± 0.02 %
